What was measured:
Test in all cases: Kinase profiling
Format in all cases: biochemical
[1] = molecular target: T1, SIK3 (Homo sapiens, UniProt Q9Y2K2)
T1 construct: purchased ProQinase (Freiburg, Germany)
Method: (§1) The analysis was performed by ProQinase (Freiburg, Germany).

[2] = molecular target: T2, LIMK1 (Homo sapiens, UniProt P53667)
T2 construct: purchased ProQinase (Freiburg, Germany)
Method: as §1

[3] = molecular target: T3, MAP4K4 (Homo sapiens, UniProt O95819)
T3 construct: purchased ProQinase (Freiburg, Germany)
Method: as §1

[4] = molecular target: T4, CSK (Homo sapiens, UniProt P41240)
T4 construct: purchased ProQinase (Freiburg, Germany)
Method: as §1

[5] = molecular target: T5, NIK (Homo sapiens, UniProt Q99558)
T5 construct: purchased ProQinase (Freiburg, Germany)
Method: as §1

[6] = molecular target: T6, MARK3 (Homo sapiens, UniProt P27448)
T6 construct: purchased ProQinase (Freiburg, Germany)
Method: as §1

[7] = molecular target: T7, HIPK1 (Homo sapiens, UniProt Q86Z02)
T7 construct: purchased ProQinase (Freiburg, Germany)
Method: as §1

[8] = molecular target: T8, ZAK (Homo sapiens, UniProt Q9NYL2)
T8 construct: purchased ProQinase (Freiburg, Germany)
Method: as §1

[9] = molecular target: T9, PAK3 (Homo sapiens, UniProt O75914)
T9 construct: purchased ProQinase (Freiburg, Germany)
Method: as §1

[10] = molecular target: T10, MYLK3 (Homo sapiens, UniProt Q32MK0)
T10 construct: purchased ProQinase (Freiburg, Germany)
T10 sequence (Q32MK0 1-819): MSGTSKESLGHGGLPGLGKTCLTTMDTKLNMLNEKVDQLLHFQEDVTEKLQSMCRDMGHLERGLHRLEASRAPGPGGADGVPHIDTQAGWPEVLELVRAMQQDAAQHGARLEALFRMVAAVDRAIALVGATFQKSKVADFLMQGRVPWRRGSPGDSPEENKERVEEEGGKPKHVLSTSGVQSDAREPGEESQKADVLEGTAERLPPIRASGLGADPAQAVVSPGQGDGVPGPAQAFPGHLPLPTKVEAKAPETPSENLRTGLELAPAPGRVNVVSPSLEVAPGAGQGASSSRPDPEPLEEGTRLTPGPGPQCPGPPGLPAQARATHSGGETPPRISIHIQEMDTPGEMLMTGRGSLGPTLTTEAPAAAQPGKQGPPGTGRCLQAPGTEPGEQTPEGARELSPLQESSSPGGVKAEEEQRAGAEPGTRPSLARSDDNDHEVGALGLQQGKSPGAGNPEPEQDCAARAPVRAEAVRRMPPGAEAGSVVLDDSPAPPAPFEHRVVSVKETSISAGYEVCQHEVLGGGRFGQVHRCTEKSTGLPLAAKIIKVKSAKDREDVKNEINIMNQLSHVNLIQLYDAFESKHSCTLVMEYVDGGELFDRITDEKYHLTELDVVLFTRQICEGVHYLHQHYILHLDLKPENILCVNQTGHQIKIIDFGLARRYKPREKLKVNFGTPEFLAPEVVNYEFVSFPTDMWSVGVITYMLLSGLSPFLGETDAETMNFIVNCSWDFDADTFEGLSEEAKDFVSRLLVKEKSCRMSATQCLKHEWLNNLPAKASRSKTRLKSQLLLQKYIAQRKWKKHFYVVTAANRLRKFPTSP
Method: as §1

[11] = molecular target: T11, VEGFR3 (Homo sapiens, UniProt P35916)
T11 construct: purchased ProQinase (Freiburg, Germany)
Method: as §1

[12] = molecular target: T12, FRK (Homo sapiens, UniProt P42685)
T12 construct: purchased ProQinase (Freiburg, Germany)
Method: as §1

[13] = molecular target: T13, JNK3 (Homo sapiens, UniProt P53779)
T13 construct: purchased ProQinase (Freiburg, Germany)
Method: as §1

[14] = molecular target: T14, VRK2 (Homo sapiens, UniProt Q86Y07)
T14 construct: purchased ProQinase (Freiburg, Germany)
Method: as §1

[15] = molecular target: T15, PRKG1 (Homo sapiens, UniProt Q13976)
T15 construct: purchased ProQinase (Freiburg, Germany)
T15 sequence (Q13976 1-671): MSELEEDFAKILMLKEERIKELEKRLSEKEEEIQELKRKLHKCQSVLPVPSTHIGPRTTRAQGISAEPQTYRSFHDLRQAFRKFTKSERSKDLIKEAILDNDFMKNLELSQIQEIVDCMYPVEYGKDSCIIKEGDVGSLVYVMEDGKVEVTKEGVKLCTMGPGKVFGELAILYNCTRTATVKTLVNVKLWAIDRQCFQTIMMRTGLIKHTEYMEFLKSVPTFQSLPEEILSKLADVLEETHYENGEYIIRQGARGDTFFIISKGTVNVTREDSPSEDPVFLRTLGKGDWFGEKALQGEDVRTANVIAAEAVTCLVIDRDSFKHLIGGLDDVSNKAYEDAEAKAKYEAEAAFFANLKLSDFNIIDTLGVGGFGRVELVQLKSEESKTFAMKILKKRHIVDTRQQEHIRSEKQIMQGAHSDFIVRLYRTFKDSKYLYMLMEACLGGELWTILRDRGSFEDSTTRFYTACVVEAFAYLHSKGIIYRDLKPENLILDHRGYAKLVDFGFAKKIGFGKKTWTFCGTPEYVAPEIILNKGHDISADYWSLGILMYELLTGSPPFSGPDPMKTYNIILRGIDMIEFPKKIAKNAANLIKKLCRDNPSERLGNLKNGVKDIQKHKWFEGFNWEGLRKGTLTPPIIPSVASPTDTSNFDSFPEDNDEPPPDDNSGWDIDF
Method: as §1

[16] = molecular target: T16, DYRK1B (Homo sapiens, UniProt Q9Y463)
T16 construct: purchased ProQinase (Freiburg, Germany)
Method: as §1

T3 sequence (O95819 whole entry): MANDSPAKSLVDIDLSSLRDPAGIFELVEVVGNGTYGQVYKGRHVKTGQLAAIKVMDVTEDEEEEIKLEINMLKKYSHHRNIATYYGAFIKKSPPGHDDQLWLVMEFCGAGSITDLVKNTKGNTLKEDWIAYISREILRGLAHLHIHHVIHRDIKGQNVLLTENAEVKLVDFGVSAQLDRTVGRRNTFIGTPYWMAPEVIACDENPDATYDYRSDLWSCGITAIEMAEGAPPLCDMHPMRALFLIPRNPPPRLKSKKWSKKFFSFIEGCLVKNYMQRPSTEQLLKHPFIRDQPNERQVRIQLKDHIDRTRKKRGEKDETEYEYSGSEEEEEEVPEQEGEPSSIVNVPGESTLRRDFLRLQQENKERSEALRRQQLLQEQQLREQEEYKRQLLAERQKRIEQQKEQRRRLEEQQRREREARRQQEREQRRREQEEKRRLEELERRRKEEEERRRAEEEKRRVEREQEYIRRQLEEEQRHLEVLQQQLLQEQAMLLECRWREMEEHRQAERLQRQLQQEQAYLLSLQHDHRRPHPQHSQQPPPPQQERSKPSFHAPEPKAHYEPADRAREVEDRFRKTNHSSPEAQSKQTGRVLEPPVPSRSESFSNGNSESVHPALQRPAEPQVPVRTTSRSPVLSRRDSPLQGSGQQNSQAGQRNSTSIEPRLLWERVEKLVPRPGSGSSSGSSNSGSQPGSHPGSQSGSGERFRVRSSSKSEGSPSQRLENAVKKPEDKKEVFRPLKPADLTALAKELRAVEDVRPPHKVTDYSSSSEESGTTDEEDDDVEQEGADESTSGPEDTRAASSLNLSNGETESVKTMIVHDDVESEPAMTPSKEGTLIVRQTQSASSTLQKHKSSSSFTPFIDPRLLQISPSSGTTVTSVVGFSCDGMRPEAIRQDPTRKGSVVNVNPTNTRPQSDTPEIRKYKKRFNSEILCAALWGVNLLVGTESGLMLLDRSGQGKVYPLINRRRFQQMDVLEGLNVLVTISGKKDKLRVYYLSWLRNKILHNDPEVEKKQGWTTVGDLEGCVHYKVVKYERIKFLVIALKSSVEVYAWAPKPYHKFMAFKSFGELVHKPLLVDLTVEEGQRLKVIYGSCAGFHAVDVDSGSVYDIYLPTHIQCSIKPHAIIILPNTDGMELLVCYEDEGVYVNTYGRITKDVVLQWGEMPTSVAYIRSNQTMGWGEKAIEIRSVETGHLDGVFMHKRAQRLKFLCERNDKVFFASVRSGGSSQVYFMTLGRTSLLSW
T4 sequence (P41240 whole entry): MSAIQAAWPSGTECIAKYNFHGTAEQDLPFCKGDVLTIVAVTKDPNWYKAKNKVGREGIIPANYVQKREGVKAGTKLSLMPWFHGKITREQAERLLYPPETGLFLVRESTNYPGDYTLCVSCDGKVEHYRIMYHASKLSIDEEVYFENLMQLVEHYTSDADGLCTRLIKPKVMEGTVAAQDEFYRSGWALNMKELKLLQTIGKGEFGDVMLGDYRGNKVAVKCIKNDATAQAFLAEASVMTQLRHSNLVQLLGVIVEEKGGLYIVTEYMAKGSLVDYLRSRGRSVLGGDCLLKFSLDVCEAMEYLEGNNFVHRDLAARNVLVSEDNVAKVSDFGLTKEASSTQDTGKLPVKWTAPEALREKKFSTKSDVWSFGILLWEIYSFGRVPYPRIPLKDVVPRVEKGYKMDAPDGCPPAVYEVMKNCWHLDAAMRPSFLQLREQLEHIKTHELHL
T13 sequence (P53779 whole entry): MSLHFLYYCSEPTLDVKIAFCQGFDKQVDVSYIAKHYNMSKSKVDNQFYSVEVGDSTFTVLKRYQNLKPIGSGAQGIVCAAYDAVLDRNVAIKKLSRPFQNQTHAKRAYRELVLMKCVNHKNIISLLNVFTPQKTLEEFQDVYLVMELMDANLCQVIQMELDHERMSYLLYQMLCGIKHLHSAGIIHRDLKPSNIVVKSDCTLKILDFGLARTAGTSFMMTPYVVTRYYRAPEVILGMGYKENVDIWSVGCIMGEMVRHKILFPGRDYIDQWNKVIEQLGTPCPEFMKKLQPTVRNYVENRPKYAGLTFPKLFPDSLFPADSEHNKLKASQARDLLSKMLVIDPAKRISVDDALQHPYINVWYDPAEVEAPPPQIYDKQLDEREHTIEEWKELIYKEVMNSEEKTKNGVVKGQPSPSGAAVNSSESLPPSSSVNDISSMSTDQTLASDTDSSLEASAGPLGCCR
T6 sequence (P27448 whole entry): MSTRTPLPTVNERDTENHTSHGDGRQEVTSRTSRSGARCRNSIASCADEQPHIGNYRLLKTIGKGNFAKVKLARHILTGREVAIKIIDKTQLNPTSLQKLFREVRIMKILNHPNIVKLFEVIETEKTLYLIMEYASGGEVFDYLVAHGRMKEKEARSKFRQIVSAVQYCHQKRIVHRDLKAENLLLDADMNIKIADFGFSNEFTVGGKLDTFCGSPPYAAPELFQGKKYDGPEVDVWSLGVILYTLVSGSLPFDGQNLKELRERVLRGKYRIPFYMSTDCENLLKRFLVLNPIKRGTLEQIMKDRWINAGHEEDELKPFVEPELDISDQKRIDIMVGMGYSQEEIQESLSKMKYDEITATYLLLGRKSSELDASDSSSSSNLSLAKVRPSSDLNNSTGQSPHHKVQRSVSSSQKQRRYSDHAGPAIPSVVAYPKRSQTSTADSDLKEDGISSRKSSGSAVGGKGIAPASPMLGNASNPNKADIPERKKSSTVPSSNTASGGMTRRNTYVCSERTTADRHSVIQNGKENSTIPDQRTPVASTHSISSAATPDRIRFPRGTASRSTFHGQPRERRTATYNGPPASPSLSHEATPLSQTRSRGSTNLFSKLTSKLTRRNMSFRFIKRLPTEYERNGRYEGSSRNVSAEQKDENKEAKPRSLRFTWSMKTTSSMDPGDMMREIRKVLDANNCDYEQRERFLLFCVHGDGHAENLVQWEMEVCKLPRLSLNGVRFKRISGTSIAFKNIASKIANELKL
T8 sequence (Q9NYL2 whole entry): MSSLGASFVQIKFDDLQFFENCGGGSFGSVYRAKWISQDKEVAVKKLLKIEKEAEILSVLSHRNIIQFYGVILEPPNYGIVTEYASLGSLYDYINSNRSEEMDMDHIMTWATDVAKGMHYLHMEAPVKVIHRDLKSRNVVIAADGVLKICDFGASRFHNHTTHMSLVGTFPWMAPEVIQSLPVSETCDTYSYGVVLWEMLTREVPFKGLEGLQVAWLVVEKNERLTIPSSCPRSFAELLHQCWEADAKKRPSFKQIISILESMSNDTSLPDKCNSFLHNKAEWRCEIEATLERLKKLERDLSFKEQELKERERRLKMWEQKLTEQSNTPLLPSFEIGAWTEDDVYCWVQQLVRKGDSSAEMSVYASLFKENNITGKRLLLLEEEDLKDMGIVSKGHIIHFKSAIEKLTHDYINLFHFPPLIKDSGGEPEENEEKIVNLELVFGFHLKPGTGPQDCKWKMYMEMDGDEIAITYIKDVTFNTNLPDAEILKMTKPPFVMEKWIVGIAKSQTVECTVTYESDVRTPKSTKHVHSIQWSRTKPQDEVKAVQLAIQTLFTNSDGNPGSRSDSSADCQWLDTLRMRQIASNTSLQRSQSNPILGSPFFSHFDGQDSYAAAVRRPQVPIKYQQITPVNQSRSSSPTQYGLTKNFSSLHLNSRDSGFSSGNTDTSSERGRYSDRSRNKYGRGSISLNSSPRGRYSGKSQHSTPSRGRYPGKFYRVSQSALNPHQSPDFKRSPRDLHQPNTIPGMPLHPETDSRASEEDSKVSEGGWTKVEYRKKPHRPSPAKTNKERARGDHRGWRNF
T14 sequence (Q86Y07 whole entry): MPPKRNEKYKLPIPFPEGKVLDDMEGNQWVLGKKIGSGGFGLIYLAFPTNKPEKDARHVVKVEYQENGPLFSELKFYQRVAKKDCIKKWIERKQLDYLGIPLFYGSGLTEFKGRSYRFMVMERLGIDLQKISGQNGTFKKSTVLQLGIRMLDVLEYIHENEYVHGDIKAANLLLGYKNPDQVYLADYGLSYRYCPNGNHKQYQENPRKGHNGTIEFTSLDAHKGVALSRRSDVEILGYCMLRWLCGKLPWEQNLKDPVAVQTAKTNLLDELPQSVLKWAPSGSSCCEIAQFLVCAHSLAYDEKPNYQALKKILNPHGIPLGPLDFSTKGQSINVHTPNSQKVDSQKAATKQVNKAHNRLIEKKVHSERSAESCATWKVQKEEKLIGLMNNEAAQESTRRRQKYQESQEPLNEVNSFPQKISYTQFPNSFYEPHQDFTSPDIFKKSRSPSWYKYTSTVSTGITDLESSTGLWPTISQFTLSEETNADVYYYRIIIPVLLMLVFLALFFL
T2 sequence (P53667 whole entry): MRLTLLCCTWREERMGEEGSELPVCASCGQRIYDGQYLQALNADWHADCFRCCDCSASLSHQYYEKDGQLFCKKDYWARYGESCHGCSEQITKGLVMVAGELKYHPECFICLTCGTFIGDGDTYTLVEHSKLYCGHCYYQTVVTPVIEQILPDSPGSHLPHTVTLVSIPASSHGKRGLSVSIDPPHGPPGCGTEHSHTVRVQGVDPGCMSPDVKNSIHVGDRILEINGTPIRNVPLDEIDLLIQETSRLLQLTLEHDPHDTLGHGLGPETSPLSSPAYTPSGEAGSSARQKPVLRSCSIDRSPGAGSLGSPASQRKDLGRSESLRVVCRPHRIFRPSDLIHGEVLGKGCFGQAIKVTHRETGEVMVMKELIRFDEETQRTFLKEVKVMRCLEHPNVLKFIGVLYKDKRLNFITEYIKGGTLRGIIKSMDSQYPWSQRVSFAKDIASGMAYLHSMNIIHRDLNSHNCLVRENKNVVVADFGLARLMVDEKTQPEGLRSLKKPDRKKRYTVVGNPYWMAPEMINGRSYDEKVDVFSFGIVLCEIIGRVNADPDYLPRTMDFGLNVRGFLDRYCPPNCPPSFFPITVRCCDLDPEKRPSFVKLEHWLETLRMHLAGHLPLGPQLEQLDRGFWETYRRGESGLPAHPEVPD

Row | SMILES | Residual activity ([1]; 1.0E-05 M) | Residual activity ([1]; 1.0E-06 M) | Residual activity ([2]; 1.0E-05 M) | Residual activity ([2]; 1.0E-06 M) | Residual activity ([3]; 1.0E-05 M) | Residual activity ([3]; 1.0E-06 M) | Residual activity ([4]; 1.0E-05 M) | Residual activity ([4]; 1.0E-06 M) | Residual activity ([5]; 1.0E-05 M) | Residual activity ([5]; 1.0E-06 M) | Residual activity ([6]; 1.0E-05 M) | Residual activity ([6]; 1.0E-06 M) | Residual activity ([7]; 1.0E-05 M) | Residual activity ([7]; 1.0E-06 M) | Residual activity ([8]; 1.0E-05 M) | Residual activity ([8]; 1.0E-06 M) | Residual activity ([9]; 1.0E-05 M) | Residual activity ([9]; 1.0E-06 M) | Residual activity ([10]; 1.0E-05 M) | Residual activity ([10]; 1.0E-06 M) | also measured
1 | O=C(Cc1ccccc1)Nc1ccc(F)c(Nc2ccc3c(c2)CCCCC3=O)c1 [Compound 100] | 87 % of control | 95 % of control | 87 % of control | 102 % of control | 95 % of control | 89 % of control | 96 % of control | 106 % of control | 103 % of control | 93 % of control | 103 % of control | 106 % of control | 91 % of control | 100 % of control | 102 % of control | 109 % of control | 74 % of control | 88 % of control | 70 % of control | 97 % of control | Residual activity ([11]; 1.0E-05 M): 84 % of control; Residual activity ([11]; 1.0E-06 M): 108 % of control; Residual activity ([12]; 1.0E-05 M): 104 % of control; Residual activity ([12]; 1.0E-06 M): 107 % of control; Residual activity ([13]; 1.0E-05 M): 119 % of control; Residual activity ([13]; 1.0E-06 M): 96 % of control; Residual activity ([14]; 1.0E-05 M): 114 % of control; Residual activity ([14]; 1.0E-06 M): 113 % of control; Residual activity ([15]; 1.0E-05 M): 96 % of control; Residual activity ([15]; 1.0E-06 M): 120 % of control; Residual activity ([16]; 1.0E-05 M): 117 % of control; Residual activity ([16]; 1.0E-06 M): 103 % of control
2 | O=C(Nc1ccc(F)c(Nc2ccc3c(c2)CCCCC3=O)c1)c1cccc(F)c1 [Compound 109] | 99 % of control | 96 % of control | 96 % of control | 89 % of control | 85 % of control | 94 % of control | 109 % of control | 112 % of control | 103 % of control | 103 % of control | 105 % of control | 102 % of control | 93 % of control | 90 % of control | 106 % of control | 106 % of control | 79 % of control | 92 % of control | 80 % of control | 103 % of control | Residual activity ([11]; 1.0E-05 M): 88 % of control; Residual activity ([11]; 1.0E-06 M): 105 % of control; Residual activity ([12]; 1.0E-05 M): 102 % of control; Residual activity ([12]; 1.0E-06 M): 107 % of control; Residual activity ([13]; 1.0E-05 M): 92 % of control; Residual activity ([13]; 1.0E-06 M): 83 % of control; Residual activity ([14]; 1.0E-05 M): 108 % of control; Residual activity ([14]; 1.0E-06 M): 107 % of control; Residual activity ([15]; 1.0E-05 M): 90 % of control; Residual activity ([15]; 1.0E-06 M): 113 % of control; Residual activity ([16]; 1.0E-05 M): 96 % of control; Residual activity ([16]; 1.0E-06 M): 103 % of control
